Reference: PubChem BioAssay (NCI)
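Tested at 5 concentrations; 48 h exposure; 96-well plates; endpoints linearly interpolated, else capped at highest concentration. GI50 is the concentration that inhibits growth by half. TGI is the concentration that stops growth completely.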

Assays:
Experiment in all cases: inhibition of tumour cell growth, NCI panel, 48 h
[1] = test system: HOP-62 NSCLC
[2] = test system: OVCAR-3 ovarian
[3] = test system: SNB-75 CNS
[4] = test system: HCT-116 colon
[5] = test system: SF-295 CNS
[6] = test system: NCI-H23 lung
[7] = test system: UO-31 renal
[8] = test system: DU-145 prostate
[9] = test system: PC-3 prostate
[10] = test system: BT-549 breast

Compound	TGI [1] [µM]	TGI [2] [µM]	TGI [3] [µM]	TGI [4] [µM]	TGI [5] [µM]	TGI [6] [µM]	TGI [7] [µM]	GI50 [1] [µM]	GI50 [2] [µM]	GI50 [3] [µM]	GI50 [4] [µM]	GI50 [5] [µM]	GI50 [6] [µM]	GI50 [7] [µM]	TGI [8] [µM]	TGI [9] [µM]	TGI [10] [µM]	GI50 [8] [µM]	GI50 [9] [µM]	GI50 [10] [µM]
COc1ccc(-c2cc(-c3ccccc3)c(C#N)c(=O)[nH]2)cc1	> 100	> 100	> 100	> 100	> 100	> 100	> 100													
NNC(=O)CC(=O)Nc1ccccc1F	> 100	> 100	> 100	> 100	> 100	> 100	> 100													
CCOC(=O)c1c(-c2[nH]c(C(=O)OCc3ccccc3)c(C)c2C(=O)OCC)[nH]c(C(=O)OCc2ccccc2)c1C	> 100	> 100	77.2	> 100	> 100		> 100													
CCOC(=O)CNC(SC)=C(C#N)C#N	> 100	> 100	> 100	> 100	> 100	> 100	> 100													
COc1cc2ccc(CC#N)cc2cc1OC	> 100				> 100	> 100	> 100													
COc1ccc2oc(-c3ccncc3)cc(=O)c2c1	> 100	> 100	> 100	> 100	> 100	> 100	> 100													
CCC[CH2][Sn]1([CH2]CCC)[O]C(=O)C[S]1	18	3.03	3.27	4.49	13	2.64	7.29	6.86	1.57	1.35	1.91	3.61	1.28	2.48						
C#CCOCn1cnc2ncnc(Cl)c21	> 100	> 100	> 100	> 100	> 100	> 100	> 100													
CC(C)C(/C=C/c1ccccc1)=N\NC(=O)N/N=C(/C=C/c1ccccc1)C(C)C	> 100		92.5	45	> 100	> 100	93													
BrP(NC1CCCCCC1)(c1ccccc1)(c1ccccc1)c1ccccc1	35.5	9.94		> 100	12.2	27.4	17.4								29.9	5.53	9.57			
CN(C)c1nc(N(C)C)nc(N(C)CN(C)c2nc(N(C)C)nc(N(C)C)n2)n1	> 100	> 100	> 100	> 100	> 100	> 100	> 100													
COc1cc(Nc2ncc3c(n2)-c2ccc(Cl)cc2C(c2c(F)cccc2OC)=NC3)ccc1C(=O)O	58.5	34.4	24.6		> 64.1	65.1	21.4	5.08	7.33	2.23		0.0719	10.9	2.57	> 87.5	70.4	> 81.1	17.6	7.87	5.88
COc1cc2c(cc1OCCCCC(=O)Nc1ccc(-c3nc4ccccc4s3)cc1)N=C[C@@H]1CCCN1C2=O	6.62	8.01		5.78	3.37		3.66	2.45	1.86		1.86	0.556		1.66		5.93	2.36		2.04	1.13
COc1cc2c(c3oc(-c4ccc5c(c4)OCO5)c(O)c(=O)c13)CCC(C)(C)O2		> 100	> 100		> 100	> 100	> 100													
COC(=O)c1[nH]nc(-c2ccccc2)c1N1CCCCC1	57	> 100	84.7		> 100	85.6	> 100	22	40.7	30.6		45.7	26.3	65.4	> 100	> 100	> 100	30.5	38.9	43.9
COC1=NN2C(OC)(c3ccccc3)c3c(-c4ccccc4)sc(-c4ccccc4)c3C2(c2ccccc2)S1 (centres undefined)	> 10	> 10	> 100	> 100	> 100	> 100	> 100													
O=C1c2c(c3c4ccccc4n4c3c3c2c2ccccc2n3C/C=C\C4)C(=O)N1Cc1ccccc1	> 100	> 100	68.9	> 100	> 100	> 100	> 100													
CSC(=S)N(C)NC(=O)c1cccc(C(=O)NN(C)C(=S)SC)n1	37.3		98	> 100	16	> 100														
COc1cc(C2[C@H]3C(=O)N(c4ccc(Cc5ccc(N6C(=O)[C@@H]7ON(c8ccccc8)C(c8cc(OC)c(OC)c(OC)c8)[C@@H]7C6=O)cc5)cc4)C(=O)[C@H]3ON2c2ccccc2)cc(OC)c1OC (some centres undefined)	> 100	> 100	> 100	> 100	> 100	> 100	> 100													
CC(=O)OC1CCC2(C)C(CCC3C2CCC2(C)C(C4=CC(=O)OC4)CCC32)C1 (centres undefined)	38.3	86	30.2	> 100		14.5	49.9	14.5	20.6	11.6	7.66		3.46	16.1	40.3	25.7	25.4	14.7	5.07	4.19
O=C1Cc2ccccc2N1/N=C\c1ccc(O)cc1	> 100	> 100	70.5	> 100	> 100	> 100	> 100													
COc1cc(C2c3cc4c(cc3C3OC(=O)C2C3CO)OCO4)cc(OC)c1OC (centres undefined)	> 100		> 100	> 100	0.166	> 100	> 100	0.0339		0.0415	0.0191	0.0182	0.0317	0.0644		> 100	9.27	0.0285	0.0285	0.0334
